From article PMC10709319, “Glycosyltransferase 8 domain-containing protein 1 (GLT8D1) is a UDP-dependent galactosyltransferase” (Scientific Reports, 2023) come the findings set out here.

The structures appear in SMILES notation.

In the first assay the target is T1, GLT8D1 (recombinant secretory glycosyltransferase 8 domain-containing protein 1) (Homo sapiens, UniProt Q68CQ7).
T1 construct: lumenal catalytic domain 52-371; GFP fusion kept; secreted from HEK293-F cells; N-glycosylated; expected mass 67,624 Da
T1 sequence (Q68CQ7 52-371): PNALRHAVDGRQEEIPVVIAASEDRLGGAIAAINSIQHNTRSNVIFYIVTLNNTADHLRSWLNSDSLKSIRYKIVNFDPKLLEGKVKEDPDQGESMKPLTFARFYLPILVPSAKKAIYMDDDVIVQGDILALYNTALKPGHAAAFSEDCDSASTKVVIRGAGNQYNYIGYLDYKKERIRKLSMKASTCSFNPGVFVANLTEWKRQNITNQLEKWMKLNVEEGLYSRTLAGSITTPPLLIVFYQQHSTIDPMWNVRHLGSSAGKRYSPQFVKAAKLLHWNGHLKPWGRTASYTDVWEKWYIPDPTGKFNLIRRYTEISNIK
As to the kind of experiment: intrinsic tryptophan fluorescence DSF (nanoDSF). It is filed as binding. The settings on record: 0.1 mM ligand, 1 mM MnCl2, 50 mM Tris-HCl pH 7.5; shift relative to Mn2+ alone. (DSF heats the sample and reads unfolding from a dye or from intrinsic fluorescence.)
Turning to `CC(=O)N[C@H]1[C@@H](OP(=O)(O)OP(=O)(O)OC[C@H]2O[C@@H](n3ccc(=O)[nH]c3=O)[C@H](O)[C@@H]2O)O[C@H](CO)[C@@H](O)[C@@H]1O` [UDP-GlcNAc], the ΔTm is ~ 2 °C.
Same read-out and setting: under `Nc1nc2c(ncn2[C@@H]2O[C@H](COP(=O)(O)OP(=O)(O)O)[C@@H](O)[C@H]2O)c(=O)[nH]1` [GDP] stands “+ 7.7 °C”; under `O=C(O)[C@H]1O[C@H](OP(=O)(O)OP(=O)(O)OC[C@H]2O[C@@H](n3ccc(=O)[nH]c3=O)[C@H](O)[C@@H]2O)[C@H](O)[C@@H](O)[C@@H]1O` [UDP-GlcA], “+ 4.9 °C”.
Regarding `O=c1ccn([C@@H]2O[C@H](COP(=O)(O)OP(=O)(O)O[C@H]3OC[C@@H](O)[C@H](O)[C@H]3O)[C@@H](O)[C@H]2O)c(=O)[nH]1` [UDP-Xyl], the ΔTm is ~ 2 °C.
With `O=c1ccn([C@@H]2O[C@H](COP(=O)(O)OP(=O)(O)O)[C@@H](O)[C@H]2O)c(=O)[nH]1` [UDP], the ΔTm entry was “+ 11.2 °C”.
Same read-out and setting: under `CC(=O)N[C@H]1[C@@H](OP(=O)(O)OP(=O)(O)OC[C@H]2O[C@@H](n3ccc(=O)[nH]c3=O)[C@H](O)[C@@H]2O)O[C@H](CO)[C@H](O)[C@@H]1O` [UDP-GalNAc] stands ~ 2 °C.
Regarding `Nc1ccn([C@@H]2O[C@H](COP(=O)(O)O)[C@@H](O)[C@H]2O)c(=O)n1` [CMP], the ΔTm entry is “+ 1.3 °C”.

For the next assay, the target named is T1, GLT8D1 (recombinant secretory glycosyltransferase 8 domain-containing protein 1). As to the kind of experiment: UDP-Glo transferase assay; product by LC-MS/MS. It is filed as biochemical. The settings on record: acceptor, 20 mM; UDP-Gal donor, 5 mM MnCl2, 50 mM Tris-HCl pH 7.5.
Turning to `CC(=O)N[C@H]1C(O)O[C@H](CO)[C@@H](O)[C@@H]1O` (stereo partly drawn) [GlcNAc], the “UDP-Glo transferase assay; product by LC-MS/MS” value was “With UDP-Gal as donor some transferase reaction was detected towards GalNAc and GlcNAc”.
On to `CC(=O)N[C@H]1C(O)O[C@H](CO)[C@H](O)[C@@H]1O` (stereo partly drawn) [GalNAc], for which the “UDP-Glo transferase assay; product by LC-MS/MS” value was “With UDP-Gal as donor some transferase reaction was detected towards GalNAc and GlcNAc”.
